Patent publication US10543157B2, “Method of treating a hair disorder with N-hydroxypyridinones” (The Procter & Gamble Company, priority 2016, dated 2020)
pEC50: −log10 of the molar value. Counter-ions that a name gives are not always drawn.

Key:
[1] = test system: VEGF; test: In-vitro cell based VEGF induction (ELISA); conditions: human dermal fibroblasts, 24 hrs treatment, spent media, normalized to ATP
From the text: (§1) Wherein R′ and R″ are independently either hydrogen or a substituted or unsubstituted hydrocarbon group having between 1 and 20 carbon atoms. Compounds of this class can be synthesized following the procedure disclosed in U.S. Pat. No. 5,675,013. In certain aspects, the 2-pyridinol-N-oxide compound is 1-hydroxy-6-(octyloxy)-2(1H)-Pyridinone. This compound can be synthesized following the procedure disclosed in U.S. Pat. No. 5,675,013. Methods In-Vitro Cell Based Method for Measuring HIF-1 Stabilization and VEGF Induction: Human dermal fibroblasts are maintained and treated in Dulbecco's Modified Eagle Medium (DMEM) supplemented with 10% fetal bovine serum (FBS) and 1% penicillin/streptomycin. For HIF and VEGF experiments, cells are plated at 10,000 cells per well in 96-well plates. After two days, cells are treated with materials of interest solubilized in DMSO. DMSO concentration in media never exceeded 0.5%. Treatment times are 4 hrs for HIF-1a and 24 hrs for VEGF. Analytes are assayed via ELISA. After 4 hrs treatment, cells are fixed and assayed for HIF-1a using the Human/Mouse Total HIF-1a Immunoassay (R&D Systems) according to manufacturer instructions. After 24 hrs treatment, spent culture media are harvested and assayed for VEGF using the V-PLEX Human VEGF Kit (MSD) according to manufacturer instructions. HIF-1a and VEGF signals are normalized to cytochrome c signal and ATP signal, respectively, and then compared to that of untreated control. Half-maximal effective concentrations of materials are calculating using GraphPad Prism version 6 software or any other suitable software.

[2] = test system: HIF-1α; test: In-vitro cell based HIF-1 stabilization (ELISA); conditions: human dermal fibroblasts, 4 hrs treatment, normalized to cytochrome c
From the text: as §1

[3] = test system: scalp hair (target area hair count); test: Clinical study #2, split-scalp, total hair count; assay type: in vivo, human; conditions: topical twice a day
Method: (§2) Two randomized, double-blind, vehicle-controlled split-scalp studies are conducted as follows:
(§3) Subjects have the imaging sites located and tattoos placed within the imaging sites to mark the area that will be used for image capture. Three days post-tattoo placement, subjects will begin the pretreatment phase during which they applied their pretreatment products on the designated side of their scalp (left/right) for 11 days as a way of training subjects on the tonic application procedures. After the pretreatment phase has been completed, qualified subjects begin the 16-week treatment phase. Within each treatment group, left/right product assignments are randomized (tonic product and vehicle). In the first study subjects applied the assigned tonic product to the designated side of the scalp twice a day. The morning before each site visit, subjects wash and dry their hair and refrain from applying their test products and any styling aides until after their study visit has been completed. Subjects are instructed to wash hair at least every other day with a standard 2-in-1 shampoo during the entire washout and treatment phases. In the second study, after the pretreatment phase has been completed, subjects had their hair washed using the standard shampoo (½ head washing procedure) by a trained operator and blown dry by themselves. After washing hair (no treatment products and no styling products after washing), the two 1.8×1.8 cm imaging sites on the midfrontal/parietal scalp are clipped for hair count analysis as described below. Site staff then apply the two treatment products to the assigned sites (3×3 cm) on the scalp. Subjects return to the study site later in the day and site staff apply the 2nd application of treatment products for that day (i.e. twice a day tonic application) to each site. The following day, the subjects return to the test site and have their hair washed using the standard shampoo (½ head washing procedure) by site staff and blown dry themselves. Images of the two sites are captured for anagen hair count.
[…] study site in the morning and had their hair washed by site staff (½ head washing procedure) and blown dry by themselves in the morning before the 1st application of treatment products of the day. Site staff then apply the two treatment products to the assigned sites (3×3 cm) on the scalp. Subjects return to the study site later in the day and site staff apply the 2nd application of the treatment products for that day (i.e. twice a day tonic application) to each site.
An efficacy end point of these studies is the change from baseline in target area hair count (hairs/cm2) at week 8 and/or 16, as applicable. […]

[4] = test system: telogen (resting) hairs of scalp; test: Clinical study #2, telogen hair count; assay type: in vivo, human; conditions: for TELOGEN Hair counts Change from Baseline Mean +/− SE / TELOGEN Hair counts Difference of CFBs Mean +/− SE: time not given in table (text: week 8)
From the text: as §3
(§4) The following day and for every day during the 8-week treatment phase subjects returned to the study site in the morning and had their hair washed by site staff (½ head washing procedure) and blown dry by themselves in the morning before the 1st application of treatment products of the day. Site staff then apply the two treatment products to the assigned sites (3×3 cm) on the scalp. Subjects return to the study site later in the day and site staff apply the 2nd application of the treatment products for that day (i.e. twice a day tonic application) to each site.
(§5) An efficacy end point of these studies is the change from baseline in target area hair count (hairs/cm2) at week 8 and/or 16, as applicable. Initial hair count and growth phase assessments are performed at baseline and at weeks 8 and 16, as applicable, in a designated target area of the scalp identified by the mini tattoo applied at baseline. The assessments are performed using a 1.8-cm2 square template centered over the mini tattoo. Hair within the template is clipped to approximately 1 mm in length. Photographic imaging equipment is supplied by Canfield Scientific Inc (Fairfield, N.J.) and is used to take macrophotographs of the shaved target area. The equipment comprises a Nikon D-SLR camera body (Nikon Corporation, Tokyo, Japan), Nikkor 60 MM F2.8 lens (Nikon Corporation), and a Canfield Epiflash (Canfield Scientific Inc, Fairfield, N.J.) with a glass contact plate and is preset and locked for magnification, f-stop, and exposure control. The analysis of the hair count photographs is performed by Canfield's core imaging laboratory. (ref: Harness J A, Kohut B, Garner J, Canfield W, Canfield D, Bertolino A. Evaluation of hair count and thickness measurements in male and female pattern hair loss using a computer-assisted technique. Poster presented at: European Hair Research Society; Zurich, Switzerland, Jul. 7-9, 2005.) The same 1 cm^2 area is mapped among the baseline, week 8, and week 16 images using the dot tattoo as a reference. […]

[5] = test system: scalp hair (target area hair count); test: Clinical study #1, split-scalp, total hair count; assay type: in vivo, human; conditions: for Total Hair Count Change from Baseline Mean +/− SE / Total Hair Count Difference of CFBs (active minus vehicle) Mean +/− SE: topical twice a day, test compound 1%, minoxidil 2% (Rogaine for Women)
Method: as §2
Two weeks prior to the Baseline visit, subjects are randomized into one of the 2 treatment groups appearing in the table below.
as §3
as §5, with “reference. Each image is then assigned a definite tracking number and randomized before analysis. The compliant and validated Canfield Hair Metrix (Canfield Scientific Inc, Fairfield, N.J.) image analysis application measures the total number of hair fibers and number of telogen and anagen hair.” for “reference.”

[6] = test system: anagen (growing) hairs of scalp; test: Clinical study #2, anagen hair count; assay type: in vivo, human; conditions: for ANAGEN Hair counts Change from Baseline Mean +/− SE / ANAGEN Hair counts Difference of CFBs Mean +/− SE: time not given in table (text: week 8)
From the text: as §3, §4
as §5, with “control.” for “control. The analysis of the hair count photographs is performed by Canfield's core imaging laboratory. (ref: Harness J A, Kohut B, Garner J, Canfield W, Canfield D, Bertolino A. Evaluation of hair count and thickness measurements in male and female pattern hair loss using a computer-assisted technique. Poster presented at: European Hair Research Society; Zurich, Switzerland, Jul. 7-9, 2005.) The same 1 cm^2 area is mapped among the baseline, week 8, and week 16 images using the dot tattoo as a reference.”

[7] = Study #2, 16 weeks (so in the source)
[8] = versus vehicle (minoxidil: versus baseline and vehicle), week 8

Compound | pEC50 [1] | pEC50 ([2]; Fibroblast) | pEC50 ([1]; Fibroblast) | TELOGEN Hair counts Change from Baseline Mean +/− SE [4] | TELOGEN Hair counts Difference of CFBs Mean +/− SE [4] | Total Hair Count Change from Baseline Mean +/− SE ([5]; Study #1, 8 weeks) | Total Hair Count Difference of CFBs (active minus vehicle) Mean +/− SE ([5]; Study #1, 8 weeks) | Total Hair Count Change from Baseline Mean +/− SE ([5]; Study #1, 16 weeks) | Total Hair Count Difference of CFBs (active minus vehicle) Mean +/− SE ([5]; Study #1, 16 weeks) | ANAGEN Hair counts Change from Baseline Mean +/− SE [6] | ANAGEN Hair counts Difference of CFBs Mean +/− SE [6] | also measured
Cc1cc(CC(C)CC(C)(C)C)n(O)c(=O)c1 (stereo not shown) [1-Hydroxy-4-methyl-6-(2,4,4-trimethylpentyl)pyridin-2(1H)-one ethanolammonium salt] | 5.68 |  |  |  |  |  |  |  |  |  |  | pEC50 [2]: 6.40
CCOC(=O)c1ccnc(C(=O)OCC)c1 [2,4-DPD, 2,4-pyridinedicarboxylic acid, diethyl ester, reference compound] |  | 3.39 |  |  |  |  |  |  |  |  |  | EC50 VEGF Induction [1]: no response
Cc1cc(C2CCCCC2)n(O)c(=O)c1 [6-cyclohexyl-1-hydroxy-4-methyl-2(1H)-pyridinone] |  | 5.41 | 5.60 |  |  |  |  |  |  |  |  | 
Nc1cc(N2CCCCC2)nc(N)[n+]1[O-] [Minoxidil, reference compound] |  |  |  | −4.07 +/− 1.71 hairs/cm^2 | −7.45 +/− 1.85 hairs/cm^2 | 14.3 +/− 2.98 hairs/cm^2 | 11.29 +/− 3.02 hairs/cm^2 | 14.83 +/− 3.53 hairs/cm^2 | 13.45 +/− 3.47 hairs/cm^2 | 8.66 +/− 1.75 hairs/cm^2 | 7.79 +/− 1.87 hairs/cm^2 | Total Hair Count Change from Baseline Mean +/− SE [3, 7]: 12.93 +/− 1.77 hairs/cm^2; Total Hair Count Difference of CFBs (active minus vehicle) Mean +/− SE [3, 7]: 5.76 +/− 2.1 hairs/cm^2
CCCCCCCCOc1cccc(=O)n1O [N-Hydroxy-6-octyloxypyridine-2(1H)one, ethanolamine salt] | 4.89 |  |  |  |  |  |  |  |  |  |  | 
CCCCCCCCOc1cccc(=O)n1O [N-Hydroxy-6-octyloxypyridine-2(1H)one] |  | 4.77 | 4.52 | 2.96 +/− 1.11 hairs/cm^2 | 0.51 +/− 1.21 hairs/cm^2 | 6.15 +/− 1.91 hairs/cm^2 | 3.94 +/− 1.71 hairs/cm^2 | 3.11 +/− 1.79 hairs/cm^2 | 3.27 +/− 1.73 hairs/cm^2 | 3.82 +/− 1.14 hairs/cm^2 | 3.18 +/− 1.22 hairs/cm^2 | Total Hair Count Change from Baseline Mean +/− SE ([3]; Study #2, 8 weeks, 0.9%): 10.13 +/− 1.15 hairs/cm^2; Total Hair Count Difference of CFBs (active minus vehicle) Mean +/− SE ([3]; Study #2, 8 weeks, 0.9%): 3.35 +/− 1.37 hairs/cm^2; telogen effluvium (shedding) ([4]; conclusion drawn from telogen counts): will not cause telogen effluvium; number of telogen (resting) hairs (in words) [4, 8]: little or no effect; hair count response as share of the minoxidil response, on average ([5]; Study #1, average of week 8 and 16): 29%; hair count from baseline and above vehicle treatment (in words) ([5]; Study #1, week 8 & 16 (p=0.019 and p=0.045)): significant increase in hair count; number of anagen (growing) hairs (in words) [6, 8]: significant increase in growing hairs
